Positions of bridges follow the written chain, without caps; N, C: chain ends. Non-standard residues stand in square brackets, D forms with d. Residues, ends and D or L forms follow the SMILES beside them. No end group written: not given here.
Columns and labels:
[1] = test system: human hepatocytes; assay: In vitro metabolic stability in human hepatocytes; conditions: 1 μM, 37° C., 0-60 min
[2] = test system: 3D in vitro model of blood brain barrier; assay: Permeation in a 3D in vitro model of blood-brain barrier; conditions: 500 nM, 2 h
[3] = test system: dopaminergic TH-positive neurons injured with MPP+; assay: Neuroprotective effect on dopaminergic TH-positive neurons injured with MPP+ (primary mesencephalic culture); format: cell-based, rat; conditions: MPP+ 4 μM, 48 h; for potency of retro-inverso peptides relative to their parent compounds and to full-length CDNF protein: stated for 'most cases'
Protocol: Neuroprotective effects of compounds 1-20 (SEQ ID NO:s 1-20, parent and retro-inverso) were tested in an in vitro model in which primary cultures of rat embryonic mesencephalic neurons were stressed with MPP+, the active metabolite of neurotoxin 1-methyl-4-phenyl-1,2,3,6-tetrahydropyridine (MPTP). MPP+ kills dopaminergic (TH-positive) neurons via a variety of toxic mechanisms, including mitochondrial dysfunction, generation of peroxynitrite, oxidative stress, ER stress and induction of apoptosis.
Rat dopaminergic neurons were cultured as described by Visanji et al., 2008. Briefly, the midbrains obtained from 15-day-old rat embryos (Janvier, France) were dissected, and the ventral portion of the mesencephalic flexure, a region of the developing brain rich in dopaminergic neurons, was used for the cell preparations. The midbrain cells were dissociated by trypsinization for 20 min at 37° C. […] The reaction was stopped by adding Dulbecco's modified Eagle's medium (DMEM) containing DNAase I grade II (0.5 mg/mL) and 10% of fetal calf serum (FCS). Cells were then mechanically dissociated by 3 passages through a 10 ml pipette. Cells were then centrifuged at 180×g for 10 min at +4° C. on a layer of BSA (3.5%) in L15 medium. The cell pellets was re-suspended in a defined culture serum-free medium consisting of Neurobasal (Invitrogen) supplemented with B27 (2%), L-glutamine (2 mM) and 2% of PS solution and 10 ng/ml of Brain-derived neurotrophic factor (BDNF) and 1 ng/mL of Glial-Derived Neurotrophic Factor (GDNF). […] The cells were seeded at a density of 40 000 cells/well in 96 well-plates (pre-coated with poly-L-lysine) and maintained in a humidified incubator at 37° C. in 5% CO2/95% air atmosphere. Half of the medium was changed every 2 days with fresh medium. On 96-wells plates, only 60 wells are used. To avoid any edge effect, the first and last lines and columns were not be used for culture and were filled with sterile water.
On day 6 of culture, CDNF or the compounds 1-20 (SEQ ID NO:s 1-20, parent and retro-inverso), were dissolved in culture medium and then pre-incubated with mesencephalic neurons for 4 hours before the MPP+ application. Four hours after the preincubation of the compounds, MPP+ was added to a final concentration of 4 μM, diluted in control medium still in presence of compounds for 48 h.
48 hours after intoxication, the cells were fixed by a solution of 4% paraformaldehyde in PBS, pH 7.3 for 20 min at room temperature. The cells were washed twice in PBS, and then permeabilized and non-specific sites were blocked with a solution of PBS containing 0.1% of saponin and 1% FCS for 15 min at room temperature. Next, the cells were incubated with (a) a monoclonal antibody anti-Tyrosine Hydroxylase (TH) produced in mouse at dilution of 1:1 0000 and with (b) a polyclonal antibody anti-alpha-synuclein (aSyn) antibody produced in rabbit at dilution of 1:400 in PBS containing 1% FCS, 0.1% saponin, for 2 h at room temperature.
48 hours after intoxication, the cell culture supernatant was removed, and the cells fixed by a solution of 4% paraformaldehyde in PBS, pH 7.3 for 20 min at room temperature. The cells were washed twice in PBS, and then permeabilized and non-specific sites were blocked with a solution of PBS containing 0.1% of saponin and 1% FCS for 15 min at room temperature. Then, the cells were incubated with a) a monoclonal Anti-Tyrosine Hydroxylase (TH) antibody produced in mouse at dilution of 1:10000 in PBS containing 1% FCS, 0.1% saponin, for 2 hours at room temperature, and b) a polyclonal anti-postsynaptic density protein-95 (PSD-95) antibody produced in rabbit at dilution of 1:200 in PBS containing 1% FCS, 0.1% saponin, for 2 h at room temperature. This antibody stains specifically synapses.
For each condition, pictures representing the whole well area were automatically acquired using ImageXpress (Molecular device) at 10× (20 pictures, for TH and a-syn) or at 40× magnification (60 pictures, for TH and PSD-95). […]

[4] = In vivo pharmacokinetics after intravenous administration to rats; conditions: rat, 5 mg/kg intravenous bolus injection, male Sprague-Dawley rats, plasma; for clearance: read-out: CI
Protocol: Test compounds were intravenously (i.v.) administered to male Spraque-Dawley rats (about six weeks old, n=3 per compound) at 5 mg/kg. Blood samples were collected from jugular vein through implanted in-dwelling catheters (250 μl blood) into labelled polypropylene tubes containing anticoagulant (heparin) at 2 min, 5 min, 15 min, 30 min, 1 h, 2 h and 4 h after compound administration and held on wet ice for a maximum of 30 minutes. The blood samples were centrifuged for plasma separation (4° C., 21100 G, 5 min). Tolbutamide 500 ng/ml with 10% TFA in acetonitrile or in MeCN was used as an internal standard solution. The standard samples were prepared into rat plasma by spiking the matrix into concentrations 2-10 000 ng/ml of the analyte, respectively, and otherwise treated as the samples. To 50 μl aliquots of sample plasma was added 200 μl of internal standard. Samples were mixed (150 rpm, 15 min) and centrifugated (3000 rpm, 15 min). The analytical method was optimized for reaction monitoring chromatographic (peak shape & retention) shifts and mass spectrometric properties (ionization efficiency, MS/MS detection). Supernatants were is analyzed by UHPLC-TOF mass spectrometry using electrospray ionization. […]

[5] = biological target: nucleotide-binding domain of GRP78 (GRP78-NBD); assay: Binding to GRP78-NBD Kd (μM)
Text: Table printed on a drawing sheet, FIG. 5B
Head of the field: Binding to GRP78-NBD Kd (μM)
GRP78-NBD is shown in a to translucent surface model along with its cartoon trace. The Cys-Cys bond in compound 14 (SEQ ID NO: 14) is shown in sticks.
The binding affinities are obtained by microscale thermophoresis-based cell free assay.
GSK2606414 was used to inhibit PERK signaling and KIRA6 to inhibit IRE1alpha signaling. * p<0.05, ** p<0.01, *** p<0.001, **** p<0.0001 one-way ANOVA test with post-hoc Fisher's LSD test for pairwise comparison vs MPP+ negative control. #p<0.05, ##p<0.01, ###p<0.001, ####p<0.0001 one-way ANOVA test with post-hoc Fisher's LSD test for pairwise comparison between effect of compound alone and its combination with UPR signal inhibitor.
Where the first naming reader finds the target: head: Binding to GRP78-NBD Kd (μM)

[6] = test system: rat hepatocytes; assay: In vitro metabolic stability in rat hepatocytes; conditions: 1 μM, 37° C., 0-60 min
[7] = In vitro metabolic stability in rat plasma; format: in vitro ADME; conditions: 1 μM, 37° C., up to 120 min
Protocol: Metabolic stability of the retro-inverso and native control peptides was studied using rat plasma over the time period of 120 min, with initial test concentration of 1 μM. Samples were analysed using LC/QE-orbitrap-MS. Calculated half-life is based on compound disappearance in rat plasma.
The incubation was terminated by acetonitrile. […] Stock solutions was prepared using 50% DMSO, and the compounds were spiked 1/100 to incubation to have final DMSO content of 0.5%. […] For analysis of compounds 13-14 and 19-20 stock solutions were prepared with PBS, and samples were analyzed by UHPLC-ToF mass spectrometry. Enalapril 1 μM was used as a disappearance rate control.

**Q.** Which “stability in human hepatocytes as compared to parent compound” value [1] does the source give for `C[C@H](O)[C@@H](N)C(=O)N[C@H](CCCCN)C(=O)N[C@H](CCC(=O)O)C(=O)N[C@H](C)C(=O)N[C@@H]1CSSC[C@H](C(=O)N[C@H](CCC(=O)O)C(=O)N[C@H](CCC(=O)O)C(=O)NCC(=O)O)NC(=O)[C@@H](CCCNC(=N)N)NC(=O)[C@@H](C)NC1=O` [Compound 6, TKEACARCEEG] here?
**A.** significantly improved stability

**Q.** And the “ability to pass through the in vitro blood-brain barrier as compared to parent compound” value [2]?
**A.** improved ability to pass

**Q.** What about the “potency of retro-inverso peptides relative to their parent compounds and to full-length CDNF protein” value [3] of the same molecule?
**A.** comparable

**Q.** And the AUC(0-inf) [4]?
**A.** 15500 ng·h/mL

**Q.** What about the MRT [4] of the same molecule?
**A.** 29.4 min

**Q.** What about the Vd [4] of the same molecule?
**A.** 0.16 L/kg

**Q.** And the half-life [4]?
**A.** 24.5 min

**Q.** And the clearance [4]?
**A.** 5.69 mL/min/kg

**Q.** What about the Kd [5] of the same molecule?
**A.** 3.86 µM

**Q.** And the “stability in rat hepatocytes as compared to parent compound” value [6]?
**A.** significantly improved stability

**Q.** Which “ability to pass through the in vitro blood-brain barrier as compared to parent compound” value [2] does the source give for `C[C@H](O)[C@@H](NC(=O)[C@H]1CSSC[C@@H](NC(=O)[C@@H](C)NC(=O)[C@@H](CCC(=O)O)NC(=O)[C@@H](CCCCN)NC(=O)[C@H](N)CO)C(=O)NCC(=O)NCC(=O)N[C@H](CCCCN)C(=O)N1)C(=O)N[C@H](CCC(=O)O)C(=O)NCC(=O)O` [Compound 12, SKEACGGKCTEG] (H-[dS][dK][dE][dA][dC]GG[dK][dC][dT][dE]G-OH; disulfide 5-9; N-terminus and C-terminus assumed) here?
**A.** improved ability to pass

**Q.** And the AUC(0-inf) [4]?
**A.** 4310 ng·h/mL

**Q.** And the MRT [4]?
**A.** 22.9 min

**Q.** And the Vd [4]?
**A.** 0.45 L/kg

**Q.** And the half-life [4]?
**A.** 19.7 min

**Q.** What about the clearance [4] of the same molecule?
**A.** 19.5 mL/min/kg

**Q.** For `C[C@@H](NC(=O)[C@@H](CCC(=O)O)NC(=O)[C@H](N)CCCCN)C(=O)N[C@@H]1CSSC[C@H](C(=O)N[C@H](CCC(=O)O)C(=O)N[C@H](CCC(=O)O)C(=O)O)NC(=O)[C@@H](CCCNC(=N)N)NC(=O)[C@@H](C)NC1=O` [Compound 14, KEACARCEE] (H-[dK][dE][dA][dC][dA][dR][dC][dE][dE]-OH; disulfide 4-7; N-terminus and C-terminus assumed), which AUC(0-inf) [4] is on record?
**A.** 7500 ng·h/mL

**Q.** What about the MRT [4] of the same molecule?
**A.** 19.2 min

**Q.** What about the Vd [4] of the same molecule?
**A.** 0.21 L/kg

**Q.** What about the half-life [4] of the same molecule?
**A.** 18.4 min

**Q.** What about the clearance [4] of the same molecule?
**A.** 11.4 mL/min/kg

**Q.** What about the “stability in rat plasma as compared to parent compound” value [7] of the same molecule?
**A.** significantly improved stability

**Q.** What about the “stability in rat hepatocytes as compared to parent compound” value [6] of the same molecule?
**A.** significantly improved stability

**Q.** With “CDNF: full-length cerebral dopamine neurotrophic factor protein (rhCDNF), unconventional neurotrophic factor” as the molecule, how does the “alpha-synuclein (aSyn) aggregates / inclusions in TH-positive neurons” value [3] read?
**A.** reducing accumulation

**Q.** What about the “protection of TH-positive neurons, their neurites and synapses from MPP+ toxicity” value [3] of the same molecule?
**A.** neuroprotective

**Q.** Which Kd [5] does the source give for “EACARCEE ([dE][dA][dC][dA][dR][dC][dE][dE]; disulfide 3-6) [Compound 18] [listing 1 of 2 here]” here?
**A.** 1.23 µM

**Q.** Which “potency of retro-inverso peptides relative to their parent compounds and to full-length CDNF protein” value [3] does the source give for “EACARCEE ([dE][dA][dC][dA][dR][dC][dE][dE]; disulfide 3-6) [Compound 18] [listing 2 of 2 here]” here?
**A.** comparable

**Q.** Which Kd [5] does the source give for EECRACAE (disulfide 3-6) [Compound 17] here?
**A.** 0.3 µM

**Q.** For ETCKGCAE (disulfide 3-6) [Compound 19], which Kd [5] is on record?
**A.** 14.3 µM

**Q.** Which Kd [5] does the source give for “GEECRACAEKT (disulfide 4-7) [Compound 5]” here?
**A.** 3.21 µM

**Q.** Which Kd [5] does the source give for “KEACARCEE ([dK][dE][dA][dC][dA][dR][dC][dE][dE]; disulfide 4-7) [Compound 14]” here?
**A.** 0.68 µM

**Q.** Which “potency of retro-inverso peptides relative to their parent compounds and to full-length CDNF protein” value [3] does the source give for KEACARCEEGWSHLIQKLEAVRM [Compound 2] here?
**A.** comparable

**Q.** For “KEACGKCTE ([dK][dE][dA][dC]G[dK][dC][dT][dE]; disulfide 4-7) [Compound 16]”, which “potency of retro-inverso peptides relative to their parent compounds and to full-length CDNF protein” value [3] is on record?
**A.** comparable

**Q.** Which “stability in human hepatocytes as compared to parent compound” value [1] does the source give for “KEACGKCTEGWDDLIKKLEKVRL ([dK][dE][dA][dC]G[dK][dC][dT][dE]G[dW][dD][dD][dL][dI][dK][dK][dL][dE][dK][dV][dR][dL]; disulfide 4-7) [Compound 4]” here?
**A.** significantly improved stability

**Q.** What about the “ability to pass through the in vitro blood-brain barrier as compared to parent compound” value [2] of the same molecule?
**A.** improved ability to pass

**Q.** What about the “potency of retro-inverso peptides relative to their parent compounds and to full-length CDNF protein” value [3] of the same molecule?
**A.** comparable

**Q.** What about the “stability in rat hepatocytes as compared to parent compound” value [6] of the same molecule?
**A.** significantly improved stability

**Q.** With “SKEACGGKCTEG ([dS][dK][dE][dA][dC]GG[dK][dC][dT][dE]G; disulfide 5-9) [Compound 12]” as the molecule, how does the Kd [5] read?
**A.** 6.2 µM

**Q.** For “TKEACAGRCEEG ([dT][dK][dE][dA][dC][dA]G[dR][dC][dE][dE]G; disulfide 5-9) [Compound 10]”, which “potency of retro-inverso peptides relative to their parent compounds and to full-length CDNF protein” value [3] is on record?
**A.** comparable
